Oligonucleotides are given in HELM: sugar(base)linkage, 5' to 3'; d 2'-deoxyribose, r ribose, m 2'-O-methylribose, p phosphate. ss, as = sense and antisense strand
Each substance was assayed against Mmp7 (rat) (assay: reporter assay of Huesken 2005). Conditions: siRNA.
Also: test concentration or dose not given here.

Question: With “RNA1{r(G)p.r(U)p.r(G)p.r(A)p.r(G)p.r(G)p.r(A)p.r(C)p.r(U)p.r(C)p.r(A)p.r(G)p.r(G)p.r(C)p.r(G)p.r(U)p.r(G)p.r(A)p.r(A)p.d(T)p.d(T)}|RNA2{r(U)p.r(U)p.r(C)p.r(A)p.r(C)p.r(G)p.r(C)p.r(C)p.r(U)p.r(G)p.r(A)p.r(G)p.r(U)p.r(C)p.r(C)p.r(U)p.r(C)p.r(A)p.r(C)p.d(C)p.d(A)}$$$RNA1{StrandType:ss}|RNA2{StrandType:as}$” as the substance, how does the normalised inhibition (eCFP-eYFP dual reporter) read?
Answer: 89.4%

Question: For “RNA1{r(G)p.r(U)p.r(G)p.r(U)p.r(C)p.r(A)p.r(U)p.r(G)p.r(G)p.r(A)p.r(G)p.r(A)p.r(U)p.r(A)p.r(A)p.r(U)p.r(G)p.r(C)p.r(A)p.d(T)p.d(T)}|RNA2{r(U)p.r(G)p.r(C)p.r(A)p.r(U)p.r(U)p.r(A)p.r(U)p.r(C)p.r(U)p.r(C)p.r(C)p.r(A)p.r(U)p.r(G)p.r(A)p.r(C)p.r(A)p.r(C)p.d(G)p.d(G)}$$$RNA1{StrandType:ss}|RNA2{StrandType:as}$”, which normalised inhibition (eCFP-eYFP dual reporter) is on record?
Answer: 112%

Question: For “RNA1{r(G)p.r(U)p.r(G)p.r(U)p.r(G)p.r(G)p.r(A)p.r(G)p.r(U)p.r(G)p.r(C)p.r(C)p.r(A)p.r(G)p.r(A)p.r(U)p.r(G)p.r(U)p.r(U)p.d(T)p.d(T)}|RNA2{r(A)p.r(A)p.r(C)p.r(A)p.r(U)p.r(C)p.r(U)p.r(G)p.r(G)p.r(C)p.r(A)p.r(C)p.r(U)p.r(C)p.r(C)p.r(A)p.r(C)p.r(A)p.r(C)p.d(C)p.d(T)}$$$RNA1{StrandType:ss}|RNA2{StrandType:as}$”, which normalised inhibition (eCFP-eYFP dual reporter) is on record?
Answer: 93.9%

Question: “RNA1{r(G)p.r(U)p.r(U)p.r(C)p.r(U)p.r(G)p.r(U)p.r(G)p.r(A)p.r(U)p.r(G)p.r(U)p.r(A)p.r(C)p.r(C)p.r(C)p.r(U)p.r(A)p.r(C)p.d(T)p.d(T)}|RNA2{r(G)p.r(U)p.r(A)p.r(G)p.r(G)p.r(G)p.r(U)p.r(A)p.r(C)p.r(A)p.r(U)p.r(C)p.r(A)p.r(C)p.r(A)p.r(G)p.r(A)p.r(A)p.r(C)p.d(T)p.d(G)}$$$RNA1{StrandType:ss}|RNA2{StrandType:as}$” was tested. Which normalised inhibition (eCFP-eYFP dual reporter) did it give?
Answer: 105%

Question: “RNA1{r(G)p.r(U)p.r(U)p.r(G)p.r(C)p.r(A)p.r(G)p.r(A)p.r(A)p.r(U)p.r(U)p.r(C)p.r(U)p.r(C)p.r(A)p.r(C)p.r(U)p.r(A)p.r(A)p.d(T)p.d(T)}|RNA2{r(U)p.r(U)p.r(A)p.r(G)p.r(U)p.r(G)p.r(A)p.r(G)p.r(A)p.r(A)p.r(U)p.r(U)p.r(C)p.r(U)p.r(G)p.r(C)p.r(A)p.r(A)p.r(C)p.d(A)p.d(T)}$$$RNA1{StrandType:ss}|RNA2{StrandType:as}$” was tested. Which normalised inhibition (eCFP-eYFP dual reporter) did it give?
Answer: 122%

Question: How did the normalised inhibition (eCFP-eYFP dual reporter) turn out when “RNA1{r(U)p.r(A)p.r(A)p.r(U)p.r(G)p.r(C)p.r(C)p.r(A)p.r(A)p.r(A)p.r(C)p.r(A)p.r(G)p.r(U)p.r(C)p.r(C)p.r(U)p.r(A)p.r(A)p.d(T)p.d(T)}|RNA2{r(U)p.r(U)p.r(A)p.r(G)p.r(G)p.r(A)p.r(C)p.r(U)p.r(G)p.r(U)p.r(U)p.r(U)p.r(G)p.r(G)p.r(C)p.r(A)p.r(U)p.r(U)p.r(A)p.d(G)p.d(T)}$$$RNA1{StrandType:ss}|RNA2{StrandType:as}$” was run?
Answer: 105%

Question: “RNA1{r(U)p.r(A)p.r(C)p.r(C)p.r(U)p.r(U)p.r(C)p.r(A)p.r(C)p.r(G)p.r(A)p.r(C)p.r(U)p.r(C)p.r(U)p.r(A)p.r(A)p.r(A)p.r(A)p.d(T)p.d(T)}|RNA2{r(U)p.r(U)p.r(U)p.r(U)p.r(A)p.r(G)p.r(A)p.r(G)p.r(U)p.r(C)p.r(G)p.r(U)p.r(G)p.r(A)p.r(A)p.r(G)p.r(G)p.r(U)p.r(A)p.d(A)p.d(A)}$$$RNA1{StrandType:ss}|RNA2{StrandType:as}$” was tested. Which normalised inhibition (eCFP-eYFP dual reporter) did it give?
Answer: 110%

Question: “RNA1{r(U)p.r(A)p.r(C)p.r(U)p.r(G)p.r(G)p.r(A)p.r(C)p.r(G)p.r(G)p.r(A)p.r(U)p.r(G)p.r(G)p.r(U)p.r(G)p.r(A)p.r(G)p.r(G)p.d(T)p.d(T)}|RNA2{r(C)p.r(C)p.r(U)p.r(C)p.r(A)p.r(C)p.r(C)p.r(A)p.r(U)p.r(C)p.r(C)p.r(G)p.r(U)p.r(C)p.r(C)p.r(A)p.r(G)p.r(U)p.r(A)p.d(C)p.d(T)}$$$RNA1{StrandType:ss}|RNA2{StrandType:as}$” was tested. Which normalised inhibition (eCFP-eYFP dual reporter) did it give?
Answer: 32.6%

Question: For “RNA1{r(U)p.r(A)p.r(G)p.r(G)p.r(A)p.r(A)p.r(A)p.r(U)p.r(U)p.r(U)p.r(U)p.r(A)p.r(C)p.r(C)p.r(U)p.r(U)p.r(C)p.r(A)p.r(C)p.d(T)p.d(T)}|RNA2{r(G)p.r(U)p.r(G)p.r(A)p.r(A)p.r(G)p.r(G)p.r(U)p.r(A)p.r(A)p.r(A)p.r(A)p.r(U)p.r(U)p.r(U)p.r(C)p.r(C)p.r(U)p.r(A)p.d(A)p.d(G)}$$$RNA1{StrandType:ss}|RNA2{StrandType:as}$”, which normalised inhibition (eCFP-eYFP dual reporter) is on record?
Answer: 86.2%

Question: “RNA1{r(U)p.r(A)p.r(U)p.r(C)p.r(U)p.r(U)p.r(A)p.r(G)p.r(G)p.r(A)p.r(A)p.r(A)p.r(U)p.r(U)p.r(U)p.r(U)p.r(A)p.r(C)p.r(C)p.d(T)p.d(T)}|RNA2{r(G)p.r(G)p.r(U)p.r(A)p.r(A)p.r(A)p.r(A)p.r(U)p.r(U)p.r(U)p.r(C)p.r(C)p.r(U)p.r(A)p.r(A)p.r(G)p.r(A)p.r(U)p.r(A)p.d(A)p.d(T)}$$$RNA1{StrandType:ss}|RNA2{StrandType:as}$” was tested. Which normalised inhibition (eCFP-eYFP dual reporter) did it give?
Answer: 28.4%

Question: For “RNA1{r(U)p.r(C)p.r(A)p.r(A)p.r(G)p.r(A)p.r(G)p.r(G)p.r(G)p.r(U)p.r(U)p.r(A)p.r(G)p.r(U)p.r(U)p.r(G)p.r(G)p.r(G)p.r(G)p.d(T)p.d(T)}|RNA2{r(C)p.r(C)p.r(C)p.r(C)p.r(A)p.r(A)p.r(C)p.r(U)p.r(A)p.r(A)p.r(C)p.r(C)p.r(C)p.r(U)p.r(C)p.r(U)p.r(U)p.r(G)p.r(A)p.d(A)p.d(G)}$$$RNA1{StrandType:ss}|RNA2{StrandType:as}$”, which normalised inhibition (eCFP-eYFP dual reporter) is on record?
Answer: 40.8%

Question: How did the normalised inhibition (eCFP-eYFP dual reporter) turn out when “RNA1{r(U)p.r(C)p.r(A)p.r(C)p.r(G)p.r(A)p.r(C)p.r(U)p.r(C)p.r(U)p.r(A)p.r(A)p.r(A)p.r(A)p.r(C)p.r(A)p.r(A)p.r(A)p.r(G)p.d(T)p.d(T)}|RNA2{r(C)p.r(U)p.r(U)p.r(U)p.r(G)p.r(U)p.r(U)p.r(U)p.r(U)p.r(A)p.r(G)p.r(A)p.r(G)p.r(U)p.r(C)p.r(G)p.r(U)p.r(G)p.r(A)p.d(A)p.d(G)}$$$RNA1{StrandType:ss}|RNA2{StrandType:as}$” was run?
Answer: 108%

Question: “RNA1{r(U)p.r(C)p.r(A)p.r(U)p.r(A)p.r(A)p.r(U)p.r(U)p.r(G)p.r(G)p.r(C)p.r(U)p.r(U)p.r(C)p.r(G)p.r(C)p.r(A)p.r(A)p.r(G)p.d(T)p.d(T)}|RNA2{r(C)p.r(U)p.r(U)p.r(G)p.r(C)p.r(G)p.r(A)p.r(A)p.r(G)p.r(C)p.r(C)p.r(A)p.r(A)p.r(U)p.r(U)p.r(A)p.r(U)p.r(G)p.r(A)p.d(T)p.d(G)}$$$RNA1{StrandType:ss}|RNA2{StrandType:as}$” was tested. Which normalised inhibition (eCFP-eYFP dual reporter) did it give?
Answer: 75.5%

Question: With “RNA1{r(U)p.r(C)p.r(A)p.r(U)p.r(U)p.r(C)p.r(A)p.r(G)p.r(A)p.r(A)p.r(G)p.r(A)p.r(C)p.r(U)p.r(U)p.r(C)p.r(A)p.r(G)p.r(U)p.d(T)p.d(T)}|RNA2{r(A)p.r(C)p.r(U)p.r(G)p.r(A)p.r(A)p.r(G)p.r(U)p.r(C)p.r(U)p.r(U)p.r(C)p.r(U)p.r(G)p.r(A)p.r(A)p.r(U)p.r(G)p.r(A)p.d(T)p.d(C)}$$$RNA1{StrandType:ss}|RNA2{StrandType:as}$” as the substance, how does the normalised inhibition (eCFP-eYFP dual reporter) read?
Answer: 54.7%
